Source: patent US20180185305A1, “An Amino Thiol for Use in the Treatment of an Infection Caused by the Bacterium Mycobacterium Spp” (NOVABIOTICS LIMITED, priority 2015, published 2018)

Tests used:
Assay type in all cases: cell-based
Mycobacterium abscessus [1] = experiment: Antimicrobial susceptibility of M. abscessus isolates, CLSI broth microdilution (MIC100); settings: for MIC: Mycobacteroides abscessus
Protocol: (§1) Mycobacterium absessus complex (MAC) was isolated from three participating patients. The susceptibility of these isolates, plus the MAC type strain M. abscessus DSMZ44196 to the antimicrobial effects of cysteamine alone and cysteamine combined with antibiotics employed in MAC eradication strategies, (amikacin, azithromycin and meropenem) was assessed by CLSI broth microdilution procedure [CLSI, 2012] and checkerboard assay respectively.

[2] = test system: polymicrobial load in CF sputum; experiment: Effect of cysteamine and antibiotics on CF sputum microbial burden: single exposure; settings: overall over 4 and 24 h exposure; for reduction of polymicrobial load: cysteamine 1 mg/ml
Protocol: Sputum samples were processed for antimicrobial activity within 4 h of collection. To assess the antimicrobial impact of cysteamine alone and cysteamine in conjunction with antibiotics commonly used to treat infective exacerbations of CF lung disease, 0.2 ml of each sputum sample sputum was diluted ten fold in sterile phosphate buffered saline (PBS) and vortexed. Aliquots (0.2 ml) of the homogenised diluted sample were exposed to cysteamine only (1 mg/ml), [ ] antibiotic (tobramycin [0.1 mg/ml] or ciprofloxacin, [0.1 mg/ml] only, cysteamine plus antibiotic or vehicle (PBS) only, for 4 and 24 h at 37° C. Sputum samples were then serially diluted 10-fold (1×10^−1 to 1×10^−8) and spread-plated on non-selective nutrient agar plates. Cultures were incubated at 37° C. and cfu/ml of bacteria quantified at 48 h.
FEV1 was expressed as a percentage of predicted using GLI 2012 reference equations. Sputum microbial load expressed as colony forming units approximated to a log-normal distribution and was therefore logarithmically transformed to base 10. Microbial load after incubation with cysteamine, tobramycin, ciprofloxacin after 4 and 24 hours was modelled using two way repeated measures ANOVA with post hoc testing using Bonferroni adjustment. Analyses were performed using IBM SPSS Statistics for Windows, v22.0 (Armonk, N.Y.).

Mycobacterium abscessus [3] = experiment: Checkerboard assay of cysteamine combined with antibiotics, fractional inhibitory concentration index
Protocol: The Fractional Inhibitory Concentration (FIC) corresponds to an interaction coefficient indicating whether the combination of antimicrobial agents is synergistic, additive, antagonist or neutral. The FIC is determined by comparing the activity of an agent in combination (MIC of agent A+agent B) with the activity of the agent alone (MIC of agent A or agent B) as follow (Singh et al., 2000):
FIC=MICA[combition]/MICA[alone]+MICB[combination]/MICB[alone]
Additive combinations of two antimicrobial agents are indicated by a FIC index of 1, whereas a FIC index <1 indicates synergistic combinations. Neutral combinations would give a FIC between 1 and 4, a FIC index higher than 4 indicates antagonist effects between the two antimicrobial agents.
as §1

[4] = DSM44196, strain DSM44196 (type)
[5] = nine samples, ciprofloxacin 0.1 mg/ml
[6] = 23 samples, tobramycin 0.1 mg/ml, mean (95% CI)

MIC (Mycobacterium abscessus [1]; [4])	MIC (Mycobacterium abscessus [1]; strain MR27419N (clinical))	MIC (Mycobacterium abscessus [1]; strain MR313292 (clinical))	MIC (Mycobacterium abscessus [1]; strain MR313367D (clinical))	MIC range (Mycobacterium abscessus [1]; M. abscessus isolated from three study subjects)	Structure (SMILES)	reduction of polymicrobial load [2, 5]	reduction of polymicrobial load [2, 6]	further reduction of polymicrobial load compared with tobramycin ([2]; 23 samples)	further reduction of polymicrobial load compared with ciprofloxacin ([2]; nine samples)	effect of cysteamine on the impact of amikacin (by FICI) (Mycobacterium abscessus [3]; clinical and type strains)	effect of cysteamine on the impact of azithromycin (by FICI) (Mycobacterium abscessus [3]; clinical and type strains)	effect of cysteamine on meropenem sensitivity (Mycobacterium abscessus [3]; clinical isolates and type strain)
4 to 8 µg/mL	16 µg/mL	4 µg/mL	16 µg/mL		NCC[C@H](O)C(=O)N[C@@H]1C[C@H](N)[C@@H](O[C@H]2O[C@H](CN)[C@@H](O)[C@H](O)[C@H]2O)[C@H](O)[C@H]1O[C@H]1O[C@H](CO)[C@@H](O)[C@H](N)[C@H]1O [Amikacin]							
1 to 2 µg/mL	1 µg/mL	8 µg/mL	1 µg/mL		CC[C@H]1OC(=O)[C@H](C)[C@@H](O[C@H]2C[C@@](C)(OC)[C@@H](O)[C@H](C)O2)[C@H](C)[C@@H](O[C@@H]2O[C@H](C)C[C@H](N(C)C)[C@H]2O)[C@](C)(O)C[C@@H](C)CN(C)[C@H](C)[C@@H](O)[C@]1(C)O [Azithromycin]							
					O=C(O)c1cn(C2CC2)c2cc(N3CCNCC3)c(F)cc2c1=O [Ciprofloxacin]	0.84 log10 units						
62.5 to 125 µg/mL	125 µg/mL	125 to 250 µg/mL	62.5 to 125 µg/mL	62.5 to 250 µg/mL	NCCS [Cysteamine, cysteamine]	2.76 log10 units	3.18 (2.30-4.07) log10 units	1.76 log10 units	1.92 log10 units	potentiated the impact of amikacin in both clinical and type strains	azithromycin in all but one clinical strain	showing some concentration-specific antagonism
64 µg/mL	64 µg/mL	16 to 64 µg/mL	16 to 64 µg/mL		C[C@@H](O)[C@H]1C(=O)N2C(C(=O)O)=C(S[C@@H]3CN[C@H](C(=O)N(C)C)C3)[C@H](C)[C@H]12 [Meropenem]							
					NC[C@H]1O[C@H](O[C@H]2[C@H](O)[C@@H](O[C@H]3O[C@H](CO)[C@@H](O)[C@H](N)[C@H]3O)[C@H](N)C[C@@H]2N)[C@H](N)C[C@@H]1O [Tobramycin]		1.42 (95% CI 0.92-1.92) log10 units					
